Results on two molecules are retold here after US9873705B2, “Vinylogous thioester compounds and methods of use” (THE TRUSTEES OF DARTMOUTH COLLEGE, priority 2015, dated 2018).

For experiment [1], the system named is NF1 deficient cells compared to NF1 wild type cells. Briefly: Bafilomycin A1 dose response curve. The note with it: representative of two replicates. The class given is cell-based. From the text: This graph is representative of two replicates.
Experiment [2] concerns p62 and LC3B protein expression in U87-MG cells. Kind of experiment: Western blot of autophagy markers p62 and LC3B. The class given is cell-based, human. The note with it: U87-MG, Western blot, 2 μM Y102, 50 μM HCQ. An excerpt:
Ras dysregulated tumors depend on autophagy to remove damaged mitochondria and allow for their survival. […] LC3B I is lipidated to form LC3B II following induction of autophagy. LC3B II is recruited and subsequently integrated into the autophagosome. p62 functions as an adaptor protein in autophagy by binding to both ubiquitin-labeled damaged cargo such as protein aggregates or mitochondria and LC3B II to facilitate cargo uptake into the autophagosome. Degradation of the cargo occurs when the autophagosome fuses with the lysosome; when autophagy is inhibited with hydroxychloroquine (HCQ), a drug that prevents acidification of the lysosome, both LC3B II and p62 accumulate as derogation of the autophagosome is prevented, making them valuable markers of autophagic flux.
The data for FIG. 4 was obtained as follows: U87-MG cells were plated in 6-well plates at a concentration of 500,000 cells/well and allowed to adhere overnight. Cells were treated for 12 h with either DMSO or 2 μM Y102, followed by an additional 12 h co-treatment with or without 50 μM HCQ. Following treatment, cells were harvested using 0.25% trypsin, rinsed with PBS, and lysed with 75 μL modified RIPA buffer (50 mM NaCl, 1% v/v nonidet P40, 0.5% w/v sodium deoxycholate, 0.05% w/v sodium dodecyl sulfate, 50 mM Tris pH 8.0) containing 1 mM NaVO4, 1 mM NaF, 1 mM phenylmethylsulfonyl fluoride, 0.1 μg/mL leupeptin, 100 μM benzamidine HCl, 1 μM aprotinin, 0.1 μg/mL soybean trypsin inhibitor, 0.1 μg/mL pepstatin, and 0.1 μg/mL antipain. Protein was quantified using a BCA assay kit (Pierce). 40 μg of protein prepared in 1× Laemmli sample buffer (50 mM Tris pH 6.8, 0.02% w/v bromophenol blue, 2% w/v sodium dodecyl sulfate, 10% v/v glycerol, 1% v/v beta-mercaptoethanol, 12.5 mM EDTA) was separated on a 4-15% polyacrylamide gel using sodium dodecyl sulfate-polyacrylamide gel electrophoresis. Protein was transferred to nitrocellulose membrane, blocked in 5% nonfat milk in TBST, and probed with primary antibodies anti-LC3BI/II (Cell Signaling, 1:1000, overnight at 4° C.), anti-p62/SQSTM-1 D-3 (Santa Cruz, 1:1000, 1 h at room temperature), or anti-α-tubulin B-1-2-5 (Santa Cruz, 1:10000, 1 h at room temperature) in 2% nonfat milk in TBST. Blots were incubated in 1:20,000 anti-rabbit HRP or 1:10,000 anti-mouse HRP secondary antibodies diluted in 2% nonfat milk in TBST for 1 h at room temperature. Film was exposed to standard ECL (Pierce)-coated blots and developed using a standard film processor.

Each structure is given as a SMILES string.

For `CO/C1=C\C(C)=C\[C@@H](C)[C@@H](O)[C@@H](C)C/C(C)=C/C=C/[C@H](OC)[C@@H]([C@@H](C)[C@@H](O)[C@H](C)[C@@]2(O)C[C@@H](O)[C@H](C)[C@@H](C(C)C)O2)OC1=O` [Bafilomycin A1], in experiment [1], the “sensitivity of NF1 deficient vs NF1 wild type cells” value is given as “selectively sensitive”.
For `CCN(CCO)CCCC(C)Nc1ccnc2cc(Cl)ccc12` (stereo not drawn) [HCQ, hydroxychloroquine, reference compound], the “p62 accumulation (autophagy marker)” value in experiment [2] (24 hours) is “accumulation of p62”. Besides, the “LC3B I/II conversion (LC3B II accumulation)” value in experiment [2] (single agent) was “LC3B I/II conversion as seen”.
